Source: BindingDB's records for doi:10.1016/j.bmc.2013.02.037 (Chungnam National University, 2013)

Assay: Inhibition interleukin-5 in mouse Y16 cells after 48 hrs by WST-1 assay

| Compound | IC50 |
| --- | --- |
| O=c1c(CCC(O)c2ccc(C(F)(F)F)cc2)coc2cccc(OCC3CCCCC3)c12 (centres undefined) | > 30 µM |
| O=C(CCc1coc2cccc(OCC3CCCCC3)c2c1=O)c1ccccc1 | > 30 µM |
| O=C(CCc1coc2cccc(OCC3CCCCC3)c2c1=O)c1ccc2ccccc2c1 | > 30 µM |
| O=C(CCc1coc2cccc(OCC3CCCCC3)c2c1=O)c1ccc(C(F)(F)F)cc1 | > 30 µM |
| CC(C)(C)c1ccc(C(=O)CCc2coc3cccc(OCC4CCCCC4)c3c2=O)cc1 | > 30 µM |
| O=C(CCc1coc2cccc(OCC3CCCCC3)c2c1=O)c1ccc(Cl)c(Cl)c1 | 22 µM |
| COc1ccc(C(=O)CCC2COc3cccc(OCC4CCCCC4)c3C2=O)cc1 (centres undefined) | > 30 µM |
| Cc1ccc(C(=O)CCc2coc3cccc(OCC4CCCCC4)c3c2=O)cc1 | > 30 µM |
| Cc1ccc(C(O)CCc2coc3cccc(OCC4CCCCC4)c3c2=O)cc1 (centres undefined) | > 30 µM |
| CC(C)(C)c1ccc(C(O)CCc2coc3cccc(OCC4CCCCC4)c3c2=O)cc1 (centres undefined) | > 30 µM |
| O=C(CCC1COc2cccc(OCC3CCCCC3)c2C1=O)c1ccc(Cl)c(Cl)c1 (centres undefined) | > 30 µM |

The next compounds have a lower IC50 than those just listed; values first:

| IC50 | Compound |
| --- | --- |
| 15 µM | N#Cc1ccc(C(O)CCc2coc3cccc(OCC4CCCCC4)c3c2=O)cc1 (centres undefined) |
| 7.9 µM | O=c1c(CCC(O)c2ccc(Cl)c(Cl)c2)coc2cccc(OCC3CCCCC3)c12 (centres undefined) |
| 17 µM | N#Cc1ccc(C(=O)CCc2coc3cccc(OCC4CCCCC4)c3c2=O)cc1 |
| 4 µM | O=c1c(CCC(O)c2ccc(O)cc2)coc2cccc(OCC3CCCCC3)c12 (centres undefined) |
| 9 µM | O=c1c(CCC(O)c2ccc(Cl)cc2)coc2cccc(OCC3CCCCC3)c12 (centres undefined) |
| 14 µM | O=C(CCc1coc2cccc(OCC3CCCCC3)c2c1=O)c1ccc(Cl)cc1 |
| 17 µM | O=c1c(CCC(O)c2ccc3ccccc3c2)coc2cccc(OCC3CCCCC3)c12 (centres undefined) |
| 9 µM | O=c1c(CCC(O)c2ccc(F)cc2)coc2cccc(OCC3CCCCC3)c12 (centres undefined) |
| 6.5 µM | COc1ccc(C(O)CCc2coc3cccc(OCC4CCCCC4)c3c2=O)cc1 (centres undefined) |
| 12 µM | O=c1c(CCC(O)c2ccccc2)coc2cccc(OCC3CCCCC3)c12 (centres undefined) |
| 16 µM | COc1ccc(C(=O)CCc2coc3cccc(OCC4CCCCC4)c3c2=O)cc1 |
| 15 µM | O=C(CCc1coc2cccc(OCC3CCCCC3)c2c1=O)c1ccc(O)cc1 |
| 20 µM | O=C(CCc1coc2cccc(OCC3CCCCC3)c2c1=O)c1ccc(F)cc1 |
